PubChem BioAssay AID2060487 (Molecular Pharmacology Branch, DTP, NCI, 2025)
Where “and” joins values, the source holds several entries; their conditions need not be identical. Equal entries are not always repeated.

System: 997537-175-T-J1-PDC complex spheroid viability
Test: Anticancer human tumor 997537-175-T-J1-PDC patient-derived colon adenocarcinoma cell line growth inhibition [GQUAD]
Conditions: for viability, T/C: stronger effect = lower value
Text: DNA G-quadruplex Stabilizer Agents in Combinations in Complex Spheroids
A high-throughput screen of multi-cell type tumor spheroids was designed to identify active combinations of DNA G-quadruplex stabilizer agents and targeted small molecules. Complex spheroids include a stromal component modeled by human endothelial cells (HUVEC) and fibroblasts modeled by human mesenchymal stem cells (MSCs). The concentration ranges selected for each drug and investigational agent were based upon clinically achievable concentrations if the clinical Cmax of the agent was known.
Compounds. The drugs and investigational agents: pidnarulex (CX-5461; NSC782164), APTO-253 (NSC789042), BRACO-19 (NSC847499), peposertib (NSC802822), ceralasertib (NSC780249), elimusertib (NSC800525), camonsertib (NSC841442), AZD-1390 (NSC803789), olaparib (NSC753686), talazoparib (NSC767125), ART-558 (NSC835418), sotorasib (NSC818433), MRTX-1133 (NSC836407), SN-38 (NSC673596), topotecan (NSC609699), etoposide (NSC141540), doxorubicin (NSC123127), gemcitabine (NSC613327), 5-fluorouracil (NSC19893), paclitaxel (NSC125973), vemurafenib (NSC761431), panobinostat (NSC761190), R-306465 (JNJ-16241199; NSC773264), adavosertib (NSC754352), TP-3654 (NSC805149), carboplatin (NSC241240), KSQ-4279 (NSC840948), and staurosporine (NSC755774) were obtained from the National Cancer Institute (NCI) Developmental Therapeutics Program Chemical Repository (34). The FDA-approved anticancer drug set is available from the NCI Developmental Therapeutics Program. […] The stock solutions were prepared in dimethyl sulfoxide (DMSO, Sigma-Aldrich, St. Louis, MO, cat. D2650) at 800-fold the tested concentration and stored at -70 degrees C prior to their use. All drugs and investigational agents were tested over a range starting from a high concentration at or near the clinical Cmax and decreasing in half-log increments. If the clinical Cmax for an agent had not been determined, the highest concentration tested was 10 microM.
2.3 Cell Culture. All cells were maintained in an incubator at 37 degrees C and 5% CO2 with 95% humidity. The PDC lines were cultured according to standard operating procedures established by the NCI PDMR. All PDCs were thawed and cultured in Matrigel-coated flasks prepared with a working solution of 1X Ham's F-12 nutrient mix, without supplementation (Invitrogen, cat. 11765054), 100 U/mL penicillin-streptomycin (Invitrogen, cat. 15140122), and 2.5% Matrigel (Corning Inc., cat. 354248) for the first three passages. The 857933-349-R-J2-PDC line was cultured in 6C/Colon 1B media, which includes advanced DMEM/F-12 (Thermo Fisher Scientific, cat. 12634028), 10 mM HEPES (Thermo Fisher Scientific, cat. 15630080), 1X GlutaMAX supplement (Thermo Fisher Scientific, cat. 35050061), 0.1 mg/mL primocin (InvivoGen, cat. ant-pm-2), 10% defined fetal bovine serum, heat inactivated (HyClone Laboratories Inc., cat. SH30070.03HI), 50% L-WRN conditioned media (ATCC, cat. CRL-3276), 1.25 mM N-Acetyl-L-cysteine (Sigma-Aldrich, cat. A9165), 10 mM nicotinamide (Sigma-Aldrich, cat. N0636), 1X B-27 supplement (Thermo Fisher Scientific, cat. 17504044), 1X N-2 supplement (Thermo Fisher Scientific, cat. 17502048), 10 microM Y-27632 dihydrochloride (Tocris Bioscience, cat. 1254), and 50 ng/mL human EGF recombinant protein (Thermo Fisher Scientific, cat. PHG0311). The 485176-168-R4-J1-PDC line was cultured in Panc media, which includes all 6C/Colon 1B media components plus 100 ng/mL human FGF-10 (Thermo Fisher Scientific, cat. 100-26), 500 nM SB-431542 (Selleckchem, cat. S1067), and gastrin (Tocris, cat. 3006).
[…]

[1] = curve of first compound, second compound 0.0316 µM
[2] = curve of first compound, second compound 0.1 µM
[3] = curve of first compound, second compound 0.316 µM
[4] = curve of first compound, second compound 1 µM
[5] = curve of first compound, second compound 3.16 µM
[6] = curve of first compound, second compound 10 µM
[7] = second compound 0.0316 µM, first compound 0.0316 µM
[8] = second compound 0.0316 µM, first compound 0.1 µM
[9] = second compound 0.0316 µM, first compound 0.316 µM
[10] = second compound 0.0316 µM, first compound 1 µM
[11] = second compound 0.0316 µM, first compound 3.16 µM
[12] = second compound 0.0316 µM, first compound 10 µM
[13] = second compound 0.1 µM, first compound 0.0316 µM
[14] = second compound 0.1 µM, first compound 0.1 µM
[15] = second compound 0.1 µM, first compound 0.316 µM
[16] = second compound 0.1 µM, first compound 1 µM
[17] = second compound 0.1 µM, first compound 3.16 µM
[18] = second compound 0.1 µM, first compound 10 µM
[19] = second compound 0.316 µM, first compound 0.0316 µM
[20] = second compound 0.316 µM, first compound 0.1 µM
[21] = second compound 0.316 µM, first compound 0.316 µM
[22] = second compound 0.316 µM, first compound 1 µM
[23] = second compound 0.316 µM, first compound 3.16 µM
[24] = second compound 0.316 µM, first compound 10 µM
[25] = second compound 1 µM, first compound 0.0316 µM
[26] = second compound 1 µM, first compound 0.1 µM
[27] = second compound 1 µM, first compound 0.316 µM
[28] = second compound 1 µM, first compound 1 µM
[29] = second compound 1 µM, first compound 3.16 µM
[30] = second compound 1 µM, first compound 10 µM
[31] = second compound 3.16 µM, first compound 0.0316 µM
[32] = second compound 3.16 µM, first compound 0.1 µM
[33] = second compound 3.16 µM, first compound 0.316 µM
[34] = second compound 3.16 µM, first compound 1 µM
[35] = second compound 3.16 µM, first compound 3.16 µM
[36] = second compound 3.16 µM, first compound 10 µM
[37] = second compound 10 µM, first compound 0.0316 µM
[38] = second compound 10 µM, first compound 0.1 µM
[39] = second compound 10 µM, first compound 0.316 µM
[40] = second compound 10 µM, first compound 1 µM
[41] = second compound 10 µM, first compound 3.16 µM
[42] = second compound 10 µM, first compound 10 µM
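Further: spheroids exposed to the agents for 7 days.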
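Wherever viability, T/C is given: 100% = DMSO vehicle control viability.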

In the case of `CCCS(=O)(=O)Nc1ccc(F)c(C(=O)c2c[nH]c3ncc(-c4ccc(Cl)cc4)cc23)c1F`, the viability, T/C (compound 0.0316 µM) is reported as 98.4% and 98.6% and 86.2%, the viability, T/C (compound 0.1 µM) is reported as 99.3% and 95.1% and 77.8% and the viability, T/C (compound 0.316 µM) is reported as 97.4% and 68.8% and 65.1%. For the same compound, the viability, T/C (compound 1 µM) was 89.6% and 71.8% and 53%, the viability, T/C (compound 3.16 µM) was 45.4% and 56.1% and 52.3% and the viability, T/C (compound 10 µM) was 34.9% and 24.1% and 25%. For the same compound, the IC50 (curve of compound) was 2.81 µM and 3.15 µM and 1.79 µM.
In the case of `CC1COCCN1c1cc(C2(S(C)(=N)=O)CC2)nc(-c2ccnc3[nH]ccc23)n1` (stereo not drawn), the viability, T/C (compound 0.0316 µM) is reported as 98.9% and 93.7% and 101%, the viability, T/C (compound 0.1 µM) is reported as 81.9% and 86.5% and 95.8% and the viability, T/C (compound 0.316 µM) is reported as 83.6% and 94.9% and 77%. For the same compound, the viability, T/C (compound 1 µM) was 83.5% and 68.5% and 90.1%, the viability, T/C (compound 3.16 µM) was 56.5% and 65.7% and 59.5% and the viability, T/C (compound 10 µM) was 46.4% and 44.1% and 36.8%. For the same compound, the IC50 (curve of compound) was 7.16 µM and 7.09 µM and 5.6 µM.
`Nc1ccn(C2OC(CO)C(O)C2(F)F)c(=O)n1` (stereo not drawn) + Cc1[nH]c2ccc(F)cc2c1-c1nc2c3cccnc3c3ncccc3c2[nH]1 was tested, and the IC50 [1] was over 10 µM, the IC50 [2] was over 10 µM and the IC50 [3] was over 10 µM. For the same compound, the IC50 [4] was over 10 µM, the IC50 [5] was over 10 µM and the IC50 [6] was over 10 µM. The viability, T/C [7] was 106%, the viability, T/C [8] was 82.5% and the viability, T/C [9] was 98.7%. For the same compound, the viability, T/C [10] was 80.1%, the viability, T/C [11] was 86.2% and the viability, T/C [12] was 97.4%. It also gave a viability, T/C [13] of 107%, a viability, T/C [14] of 87.2% and a viability, T/C [15] of 91.5%. For the same compound, the viability, T/C [16] was 74.2%, the viability, T/C [17] was 87.4% and the viability, T/C [18] was 87.5%. It also gave a viability, T/C [19] of 99.2%, a viability, T/C [20] of 84.6% and a viability, T/C [21] of 84.1%. It also gave a viability, T/C [22] of 73.9%, a viability, T/C [23] of 90.4% and a viability, T/C [24] of 70.2%. The viability, T/C [25] was 103%, the viability, T/C [26] was 96.3% and the viability, T/C [27] was 94.7%. It also gave a viability, T/C [28] of 98.2%, a viability, T/C [29] of 82.6% and a viability, T/C [30] of 93.5%. The viability, T/C [31] was 77.4%, the viability, T/C [32] was 69% and the viability, T/C [33] was 76%. For the same compound, the viability, T/C [34] was 73.1%, the viability, T/C [35] was 83% and the viability, T/C [36] was 84.8%. It also gave a viability, T/C [37] of 78.3%, a viability, T/C [38] of 81.4% and a viability, T/C [39] of 90.4%. It also gave a viability, T/C [40] of 87.2%, a viability, T/C [41] of 80.1% and a viability, T/C [42] of 87.5%.
Work on `Nc1ccn(C2OC(CO)C(O)C2(F)F)c(=O)n1` (stereo not drawn) + CN(C)c1ccc(Nc2c3ccc(NC(=O)CCN4CCCC4)cc3nc3cc(NC(=O)CCN4CCCC4)ccc23)cc1 yielded an IC50 [1] of over 10 µM, an IC50 [2] of over 10 µM and an IC50 [3] of over 10 µM. For the same compound, the IC50 [4] was 9.28 µM, the IC50 [5] was over 10 µM and the IC50 [6] was over 10 µM. It also gave a viability, T/C [7] of 99.1%, a viability, T/C [8] of 104% and a viability, T/C [9] of 110%. For the same compound, the viability, T/C [10] was 64.1%, the viability, T/C [11] was 70.2% and the viability, T/C [12] was 69.5%. For the same compound, the viability, T/C [13] was 96.3%, the viability, T/C [14] was 98.5% and the viability, T/C [15] was 97.1%. For the same compound, the viability, T/C [16] was 72.3%, the viability, T/C [17] was 88.3% and the viability, T/C [18] was 68.8%. It also gave a viability, T/C [19] of 81.7%, a viability, T/C [20] of 97.8% and a viability, T/C [21] of 74.5%. For the same compound, the viability, T/C [22] was 74%, the viability, T/C [23] was 96.8% and the viability, T/C [24] was 77.6%. The viability, T/C [25] was 66.7%, the viability, T/C [26] was 86.9% and the viability, T/C [27] was 79.9%. The viability, T/C [28] was 87.5%, the viability, T/C [29] was 110% and the viability, T/C [30] was 47.5%. For the same compound, the viability, T/C [31] was 55.6%, the viability, T/C [32] was 80.3% and the viability, T/C [33] was 79.7%. The viability, T/C [34] was 81%, the viability, T/C [35] was 84.5% and the viability, T/C [36] was 66.2%. It also gave a viability, T/C [37] of 84%, a viability, T/C [38] of 85.1% and a viability, T/C [39] of 84.7%. For the same compound, the viability, T/C [40] was 89.5%, the viability, T/C [41] was 80.8% and the viability, T/C [42] was 63.5%.
